As a reminder, the IC50 is the concentration that gives 50% inhibition. One may read the solubility as how much of the substance goes into solution per volume.

IC50 and solubility data for 15 compounds are collected here from patent US20140005163A1 (NOVARTIS AG, priority 2010, published 2014).

Molecules are shown by their SMILES. Values after ≈ are worked out from the molar mass of the structure shown. Where two headings read alike, the source gives them in different places.

The test system of series [1] is PKB Ser473 phosphorylation in Rat1-myr-HA-p110 alpha cells. In words: Reverse protein array assay, PKB Ser473 phosphorylation in Rat1-myr-p110 alpha cells. Type of series: cell-based. Conditions: 0.5 h, pAkt Ser473, 30 minutes compound incubation, read-out: p-PKB IC50. The essentials: (§1)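 Compound exposure lasted 30 min in Rat1 cells bearing membrane-targeted HA-p110 isoforms, using 8 serial concentrations. Arrayed lysates, each spotted at four dilutions, gave relative fluorescence signals for phospho-Ser473 PKB.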

Series [2] can be described thus: Solubility at pH 6.8. Type of series: physicochemical. The essentials: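 Following the procedure of Zhou et al. (2007), compound solubility was determined at pH 6.8.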
Series [3] concerns the target T1, PI3K alpha (Homo sapiens, UniProt P42336).
T1 construct: p85(iSH2) fusion partner (see partner chain) (N); His tag (C); made in house; host or cells: baculovirus; Tn5 (Trichoplusia ni) or TiniPro insect cells
As to the kind of experiment: PI3K alpha kinase assay (Kinase-Glo luminescence). The series is classed as biochemical. The essentials: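 Read-out: Kinase-Glo luminescence of ATP left after 60 min at room temperature. Conditions: 10 nM PI3Kα (EMV B1075), 1 μM ATP, 10 μg/mL PI substrate, Tris pH 7.5 buffer with MgCl2, NaCl, CHAPS and DTT. IC50s fitted with a four-parameter logistic model.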
On the technique in general: Kinase-Glo measures the ATP left after a reaction by luminescence.

Series [4] has as its system PKB Ser473 phosphorylation in Rat1-myr-HA-p110 beta cells. In words: Reverse protein array assay, PKB Ser473 phosphorylation in Rat1-myr-p110 beta cells. As to conditions: 0.5 h, pAkt Ser473, 30 minutes incubation, read-out: p-PKB IC50. The series is classed as cell-based. The essentials: as §1
Series [5] has as its target T2, PI3K delta (Homo sapiens, UniProt O00329).
T2 construct: for the full-length p110-d subunit are generated and fused by overlapping PCR; p85(iSH2) fusion partner (see partner chain) (N); His tag (C); made in house; host or cells: baculovirus; Tn5 (Trichoplusia ni) or TiniPro insect cells
In words: PI3K delta kinase assay (Kinase-Glo luminescence). The series is classed as biochemical. The method, boiled down: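 Kinase-Glo luminescence read-out of ATP remaining after 60 min at RT. Enzyme: 10 nM BV1060 (p85 iSH2–p110δ fusion, His-tagged); substrate 10 μg/mL PI, ATP 1 μM final; Tris pH 7.5 buffer with MgCl2, NaCl, CHAPS, DTT. IC50 from 4-parameter logistic fit over 8 concentrations.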

Where [6] appears, read: pH 6.8, aqueous buffer, thermodynamic from solid, read-out: solubility.

T2 sequence (O00329 with tags, fused parts or gaps limits assumed): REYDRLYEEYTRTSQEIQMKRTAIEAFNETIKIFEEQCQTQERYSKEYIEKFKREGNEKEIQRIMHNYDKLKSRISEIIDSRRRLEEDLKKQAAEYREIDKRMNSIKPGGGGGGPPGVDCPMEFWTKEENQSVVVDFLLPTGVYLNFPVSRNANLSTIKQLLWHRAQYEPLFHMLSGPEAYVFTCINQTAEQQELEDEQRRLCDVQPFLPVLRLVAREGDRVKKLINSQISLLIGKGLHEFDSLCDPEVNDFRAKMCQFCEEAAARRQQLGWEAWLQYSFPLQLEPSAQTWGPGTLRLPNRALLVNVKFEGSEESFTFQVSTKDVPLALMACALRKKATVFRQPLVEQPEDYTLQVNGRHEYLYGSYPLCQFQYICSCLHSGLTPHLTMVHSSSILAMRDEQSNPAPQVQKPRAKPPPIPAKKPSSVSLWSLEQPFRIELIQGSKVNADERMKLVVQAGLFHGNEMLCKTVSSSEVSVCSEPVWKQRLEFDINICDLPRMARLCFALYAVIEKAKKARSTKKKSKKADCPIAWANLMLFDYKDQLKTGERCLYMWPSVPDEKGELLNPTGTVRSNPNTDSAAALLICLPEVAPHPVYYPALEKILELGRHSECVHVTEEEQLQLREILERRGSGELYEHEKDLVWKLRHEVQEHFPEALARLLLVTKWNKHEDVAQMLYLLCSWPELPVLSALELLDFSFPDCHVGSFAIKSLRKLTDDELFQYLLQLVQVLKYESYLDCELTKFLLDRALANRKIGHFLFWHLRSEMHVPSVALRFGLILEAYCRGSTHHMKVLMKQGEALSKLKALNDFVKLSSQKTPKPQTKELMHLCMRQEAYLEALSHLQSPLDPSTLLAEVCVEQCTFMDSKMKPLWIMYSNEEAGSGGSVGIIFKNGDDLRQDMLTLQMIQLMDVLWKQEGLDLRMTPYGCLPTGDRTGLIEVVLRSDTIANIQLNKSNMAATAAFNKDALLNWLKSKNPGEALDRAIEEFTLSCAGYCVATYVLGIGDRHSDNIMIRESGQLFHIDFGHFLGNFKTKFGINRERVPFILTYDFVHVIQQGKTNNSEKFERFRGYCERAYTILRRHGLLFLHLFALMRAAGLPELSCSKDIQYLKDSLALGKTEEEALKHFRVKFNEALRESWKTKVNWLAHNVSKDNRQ
T1 sequence (P42336 with tags, fused parts or gaps limits assumed): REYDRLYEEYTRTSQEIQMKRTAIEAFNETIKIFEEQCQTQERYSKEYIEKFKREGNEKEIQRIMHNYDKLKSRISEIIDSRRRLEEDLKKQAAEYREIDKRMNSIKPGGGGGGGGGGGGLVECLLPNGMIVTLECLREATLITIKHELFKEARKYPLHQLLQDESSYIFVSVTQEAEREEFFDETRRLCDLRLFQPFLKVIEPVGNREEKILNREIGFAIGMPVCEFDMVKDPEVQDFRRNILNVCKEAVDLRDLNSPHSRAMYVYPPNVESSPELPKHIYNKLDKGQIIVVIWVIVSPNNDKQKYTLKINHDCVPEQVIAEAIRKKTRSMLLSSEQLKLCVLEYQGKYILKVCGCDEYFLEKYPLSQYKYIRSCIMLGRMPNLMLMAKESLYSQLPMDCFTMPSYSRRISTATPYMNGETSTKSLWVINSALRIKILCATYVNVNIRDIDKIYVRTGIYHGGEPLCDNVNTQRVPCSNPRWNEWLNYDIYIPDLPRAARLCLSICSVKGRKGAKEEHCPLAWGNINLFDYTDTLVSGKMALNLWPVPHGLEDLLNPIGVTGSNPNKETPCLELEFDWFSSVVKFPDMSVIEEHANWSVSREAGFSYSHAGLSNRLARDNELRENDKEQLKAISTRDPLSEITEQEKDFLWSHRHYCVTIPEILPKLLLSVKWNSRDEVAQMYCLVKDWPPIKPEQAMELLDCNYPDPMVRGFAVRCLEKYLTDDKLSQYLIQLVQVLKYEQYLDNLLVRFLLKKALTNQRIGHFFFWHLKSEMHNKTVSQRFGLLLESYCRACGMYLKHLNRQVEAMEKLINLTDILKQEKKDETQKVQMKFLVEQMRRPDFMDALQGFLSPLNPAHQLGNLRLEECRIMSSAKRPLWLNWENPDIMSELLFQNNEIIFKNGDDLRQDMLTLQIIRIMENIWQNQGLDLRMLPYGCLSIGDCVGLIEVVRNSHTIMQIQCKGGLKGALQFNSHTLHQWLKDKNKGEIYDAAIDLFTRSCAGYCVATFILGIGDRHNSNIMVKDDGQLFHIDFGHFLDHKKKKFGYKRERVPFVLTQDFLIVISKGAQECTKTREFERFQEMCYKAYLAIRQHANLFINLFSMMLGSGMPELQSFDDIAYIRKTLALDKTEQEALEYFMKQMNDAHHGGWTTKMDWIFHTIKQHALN

For the compound `CCNc1cc(-c2ccc3ncc4c(c3c2)n(-c2c(C)nn(CCOC)c2C)c(=O)n4C)cnc1OC` [Example 90.2, 8-(5-Ethylamino-6-methoxy-pyridin-3-yl)-1-[1-(2-methoxy-ethyl)-3,5-dimethyl-1H-pyrazol-4-yl]-3-methyl-1,3-dihydro-imidazo[4,5-c]quinolin-2-one], the 50% inhibitory concentration (IC50) in series [1] came to 0.017 µM; in series [3] it was 0.044 µM; in series [4] it was 0.01 µM; in series [5], 0.026 µM. Besides, the solubility in series [2] (setting [6]) was more than 0.502 mg/mL.
As to `CCOc1ccc(-c2ccc3ncc4c(c3c2)n(-c2ccnn2CC)c(=O)n4C)cn1` [Example 3.4, 8-(6-Ethoxy-pyridin-3-yl)-1-(2-ethyl-2H-pyrazol-3-yl)-3-methyl-1,3-dihydro-imidazo[4,5-c]quinolin-2-one], the IC50 in series [1] was 0.214 µM; in series [3], 0.217 µM; in series [4], 0.248 µM; in series [5], 0.283 µM. Besides, the solubility in series [2] (pH 6.8) was found to be 0.002 mg/mL (≈ 4.83 µM).
On to `Cc1nn(C)cc1-n1c(=O)n(C)c2cnc3ccc(-c4cncc(OC(C)C)c4)cc3c21` [Example 58.1, 1-(1,3-Dimethyl-1H-pyrazol-4-yl)-8-(5-isopropoxy-pyridin-3-yl)-3-methyl-1,3-dihydro-imidazo[4,5-c]quinolin-2-one], for which the half-maximal inhibitory concentration (IC50) in series [1] worked out at 0.021 µM; in series [3], 0.006 µM; in series [4], 0.03 µM; in series [5] it was 0.008 µM. Further, the solubility in series [2] (setting [6]) is more than 0.428 mg/mL.
In the case of `Cc1nn(C)cc1-n1c(=O)n(C)c2cnc3ccc(-c4cccc(C(N)=O)c4)cc3c21` [Example 46, 3-[1-(1,3-Dimethyl-1H-pyrazol-4-yl)-3-methyl-2-oxo-2,3-dihydro-1H-imidazo[4,5-c]quinolin-8-yl]-benzamide], the concentration for half-maximal inhibition (IC50) amounted to 0.214 µM in series [1], 0.05 µM in series [3], 0.541 µM in series [4] and 0.292 µM in series [5]. Also, in series [2] (setting [6]), the solubility was 0.008 mg/mL (≈ 19.4 µM).
As to `Cc1nn(C)cc1-n1c(=O)n(C)c2cnc3ccc(-c4ccc(-n5cccn5)nc4)cc3c21` [Example 79, 1-(1,3-Dimethyl-1H-pyrazol-4-yl)-3-methyl-8-(6-pyrazol-1-yl-pyridin-3-yl)-1,3-dihydro-imidazo[4,5-c]quinolin-2-one], the half-maximal inhibitory concentration (IC50) in series [1] worked out at 0.001 µM; in series [3], 0.048 µM; in series [4], 0.007 µM; in series [5], 0.318 µM. In series [2] (pH 6.8), this compound registered a solubility of 0.002 mg/mL (≈ 4.58 µM).
On to `COc1ccc(-c2ccc3ncc4[nH]c(=O)n(-c5cn(C)nc5C)c4c3n2)cc1OC` [Example 249, 8-(3,4-dimethoxy-phenyl)-1-(1,3-dimethyl-1H-pyrazol-4-yl)-1,3-dihydro-1,3,5,9-tetraaza-cyclopenta[a]naphthalen-2-one], for which the IC50 in series [1] is 0.007 µM; in series [3], 0.005 µM; in series [4], 0.022 µM; in series [5] it was 0.008 µM. For the same compound, the solubility in series [2] (setting [6]) worked out at 0.016 mg/mL (≈ 38.4 µM).
For `COc1ccc(-c2ccc3ncc4c(c3c2)n(-c2cn(C)nc2C)c(=O)n4C)cc1OC` [Example 1.8, 8-(3,4-Dimethoxy-phenyl)-1-(1,3-dimethyl-1H-pyrazol-4-yl)-3-methyl-1,3-dihydro-imidazo[4,5-c]quinolin-2-one] the same measures were 0.009 µM, 0.006 µM, 0.008 µM, 0.005 µM and 0.01 mg/mL (≈ 23.3 µM).
As to `CCOc1ccc(-c2ccc3ncc4c(c3c2)n(-c2cn(CC)nc2C)c(=O)n4C)cc1OCC` [Example 27.1, 8-(3,4-Diethoxy-phenyl)-1-(1-ethyl-3-methyl-1H-pyrazol-4-yl)-3-methyl-1,3-dihydro-imidazo[4,5-c]quinolin-2-one], the IC50 turned out to be 0.017 µM in series [1], 0.008 µM in series [3], 0.021 µM in series [4] and 0.017 µM in series [5]. In addition, the solubility in series [2] (pH 6.8) came out at 0.002 mg/mL (≈ 4.24 µM).
Consider `Cc1nn(C)cc1-n1c(=O)n(C)c2cnc3ccc(-c4cncc(C(C)(C)O)c4)cc3c21` [Example 215.2, 1-(1,3-Dimethyl-1H-pyrazol-4-yl)-8-[5-(1-hydroxy-1-methyl-ethyl)-pyridin-3-yl]-3-methyl-1,3-dihydro-imidazo[4,5-c]quinolin-2-one], for which the 50% inhibitory concentration (IC50) came to 0.043 µM in series [1], 0.014 µM in series [3], 0.113 µM in series [4] and 0.011 µM in series [5]. Moreover, the solubility in series [2] (setting [6]) is more than 0.428 mg/mL.
With `COc1ncc(-c2ccc3ncc4c(c3c2)n(-c2cn(C)nc2C)c(=O)n4C)cc1[N+](=O)[O-]` [Example 66, 1-(1,3-dimethyl-1H-pyrazol-4-yl)-8-(6-methoxy-5-nitro-pyridin-3-yl)-3-methyl-1,3-dihydro-imidazo[4,5-c]quinolin-2-one], the IC50 in series [1] was determined as 0.096 µM; in series [3], 0.036 µM; in series [4], 0.086 µM; in series [5], 0.019 µM. The compound further returned a solubility in series [2] (pH 6.8) of 0.002 mg/mL (≈ 4.49 µM).
With `COCCOc1ccc(-c2ccc3ncc4c(c3c2)n(-c2cn(C)nc2C)c(=O)n4C)cn1` [Example 18, 1-(1,3-Dimethyl-1H-pyrazol-4-yl)-8-[6-(2-methoxy-ethoxy)-pyridin-3-yl]-3-methyl-1,3-dihydro-imidazo[4,5-c]quinolin-2-one], the IC50 in series [1] was 0.139 µM; in series [3], 0.086 µM; in series [4], 0.231 µM; in series [5], 0.115 µM. Besides, in series [2] (setting [6]), the solubility amounted to 0.24 mg/mL (≈ 540 µM).
For `CCOc1ccc(-c2ccc3ncc4[nH]c(=O)n(-c5cn(C)nc5C)c4c3c2)cn1` [Example 110, 1-(1,3-Dimethyl-1H-pyrazol-4-yl)-8-(6-ethoxy-pyridin-3-yl)-1,3-dihydro-imidazo[4,5-c]quinolin-2-one], the half-inhibitory concentration (IC50) came out at 0.067 µM in series [1], 0.005 µM in series [3], 0.113 µM in series [4] and 0.042 µM in series [5]. Besides, the solubility in series [2] (pH 6.8) was determined as 0.002 mg/mL (≈ 4.99 µM).
As to `Cc1nn(C)cc1-n1c(=O)n(C)c2cnc3ccc(-c4ccc(CO)nc4)cc3c21` [Example 16.2, 1-(1,3-Dimethyl-1H-pyrazol-4-yl)-8-(6-hydroxymethyl-pyridin-3-yl)-3-methyl-1,3-dihydro-imidazo[4,5-c]quinolin-2-one], the IC50 amounted to 0.151 µM in series [1], 0.026 µM in series [3], 0.07 µM in series [4] and 0.018 µM in series [5]. For the same compound, the solubility in series [2] (setting [6]) turned out to be 0.102 mg/mL (≈ 255 µM).
As for `CCn1cc(-n2c(=O)n(C)c3cnc4ccc(-c5cnc(N(C)C)nc5)cc4c32)c(C)n1` [Example 6.4, 8-(2-Dimethylamino-pyrimidin-5-yl)-1-(1-ethyl-3-methyl-1H-pyrazol-4-yl)-3-methyl-1,3-dihydro-imidazo[4,5-c]quinolin-2-one], the half-maximal inhibitory concentration (IC50) came out at 0.042 µM in series [1], 0.06 µM in series [3], 0.052 µM in series [4] and 0.044 µM in series [5]. Moreover, the solubility in series [2] (setting [6]) came to 0.036 mg/mL (≈ 84 µM).
In the case of `CCOc1cc(-c2ccc3ncc4c(c3c2)n(-c2c(C)nn(C)c2C)c(=O)n4C)ccc1OC` [Example 28.2, 8-(3-Ethoxy-4-methoxy-phenyl)-3-methyl-1-(1,3,5-trimethyl-1H-pyrazol-4-yl)-1,3-dihydro-imidazo[4,5-c]quinolin-2-one], the IC50 in series [1] was determined as 0.076 µM; in series [3], 0.062 µM; in series [4], 0.125 µM; in series [5] it was 0.053 µM. The solubility in series [2] (setting [6]) worked out at 0.003 mg/mL (≈ 6.56 µM).
